# Measurements: US20120172302A1, “COMPOSITION FOR THE TREATMENT OF BENIGN PROSTATE HYPERPLASIA” (priority 2009, published 2012)
# Square brackets hold non-standard residues; d marks the D form. Peptide text beside a SMILES is read from it. * marks the point of attachment. dPhe(4-NHCONH2) = NC(=O)Nc1ccc(C[C@@H](N)C(=O)O)cc1; Dihydroorotyl(S) = O=C1C[C@@H](C(=O)*)NC(=O)N1; dPhe(4-Cl) = N[C@H](Cc1ccc(Cl)cc1)C(=O)O; Phe(4-NH2) = Nc1ccc(C[C@H](N)C(=O)O)cc1; d2Nal = N[C@H](Cc1ccc2ccccc2c1)C(=O)O; Lys(iPr) = CC(C)NCCCC[C@H](N)C(=O)O; d3Pal = N[C@H](Cc1cccnc1)C(=O)O
# Key:
# [1] = test system: patients with BPH; test: International Prostate Symptom Score (IPSS) questionnaire, clinical trial in BPH patients; type: in vivo, men
# Experimental: For each patient, the following parameters were measured or assessed (using the methods discussed below), at time points of screening (e.g. −7 days) day 0 (“baseline”), day 14, day 28 and day 42:
# After the initial 6-week treatment period of the exploratory study had been completed, a 12-month follow-up period looking at long-term efficacy commenced. Interim data of the main efficacy variables (IPSS, IPSS Global QoL, prostate volume, urinary flow, and post-void residual volume—measured as set out below) after 6 months' follow-up are also presented herein Table 1, 2, 3 FIG. 1b), together with some IPSS data at 9 and 12 months (FIG. 1b).
# The IPSS was developed in 1991 by the American Urological Association to assess the severity of urinary symptoms related to BPH (Barry, M. J., et al., The American Urological Association symptom index for benign prostatic hyperplasia. The Measurement Committee of the American Urological Association. J Urol, 1992. 148(5): p. 1549-57; discussion 1564). It has been widely used in clinical studies, has undergone extensive validation and its psychometric properties are well documented in both the original version (containing a 1-month recall) as well as the ‘acute’ version used in this study (containing a one-week recall). The WHO has recommended the use of this instrument for the evaluation of BPH and it is considered to be the internationally accepted, standard questionnaire for assessing lower urinary tract symptoms.
# The patients were asked to complete the IPSS questionnaire to evaluate their urinary symptoms. The IPSS is a patient-administered questionnaire containing seven items to evaluate symptoms of urinary obstruction (incomplete emptying, frequency, hesitancy, urgency, weak stream, straining, nocturia) over the preceding week. Each urinary symptom question is assigned points from 0 to 5 indicating increasing severity of the particular symptom. The total score can therefore range from 0 to 35 (0-7: mildly symptomatic; 8-19: moderately symptomatic; 20-35: severely symptomatic). A reduction in score over the treatment is indicative of improvement.
# [2] = in vivo
# [3] = Day 42, all treatment groups combined
# [4] = Month 6 follow up, 32 mg group, n=7
# [5] = Month 6 follow up, 64 mg group, n=4
# [6] = Month 6 follow up, 16+16 mg group, n=6
# [7] = Month 6 follow up, 32+32 mg group, n=7
# [8] = baseline, all treatment groups combined
smiles,measurement,setting,value
"CC(=O)N[C@H](Cc1ccc2ccccc2c1)C(=O)N[C@H](Cc1ccc(Cl)cc1)C(=O)N[C@H](Cc1cccnc1)C(=O)N[C@@H](CO)C(=O)N[C@@H](Cc1ccc(NC(=O)[C@@H]2CC(=O)NC(=O)N2)cc1)C(=O)N[C@H](Cc1ccc(NC(N)=O)cc1)C(=O)N[C@@H](CC(C)C)C(=O)N[C@@H](CCCCNC(C)C)C(=O)N1CCC[C@H]1C(=O)N[C@H](C)C(N)=O [Degarelix, D-Alaninamide, N-acetyl-3-(2-naphthalenyl)-D-alanyl-4-chloro-D-phenylalanyl-3-(3-pyridinyl)-D-alanyl-L-seryl-4-[[[(4S)-hexahydro-2,6-dioxo-4-pyrimidinyl]carbonyl]amino]-L-phenylalanyl-4-[(aminocarbonyl)amino]-D-phenylalanyl-L leucyl-N6-(1-methylethyl)-L-lysyl-L-prolyl] (Ac-[d2Nal][dPhe(4-Cl)][d3Pal]S[Phe(4-NH2)](Dihydroorotyl(S))[dPhe(4-NHCONH2)]L[Lys(iPr)]P[dA]-NH2)",Mean IPSS score,"[1]; Baseline, 64 mg group (one s.c. injection Day 0), N=13",21.8 (6.2)
same,Mean IPSS score,"[1]; Baseline, 16+16 mg group (16 mg s.c. Day 0 and Day 14), N=13",17.7 (4.5)
same,Mean IPSS score,"[1]; Baseline, 32+32 mg group (32 mg s.c. Day 0 and Day 14), N=12",18.2 (5.4)
same,IPSS mean change from baseline,"[1]; Day 14, 32 mg group",−7.8 (8.7)
same,IPSS mean change from baseline,"[1]; Day 14, 64 mg group",−8.0 (4.0)
same,IPSS mean change from baseline,"[1]; Day 14, 16+16 mg group",−3.2 (5.4)
same,IPSS mean change from baseline,"[1]; Day 14, 32+32 mg group",−5.5 (5.0)
same,IPSS mean change from baseline,"[1]; Day 42, 32 mg group",−13.2 (6.6)
same,Mean IPSS score,"[1]; Day 42, 32 mg group",9.1 (6.2)
same,"Number of patients in IPSS category ""severe""","[1]; Day 42, 32 mg group",1 patients
same,Percentage responders (decrease in IPSS of at least 30% vs baseline),"[1]; Day 42, 32 mg group",92%
same,IPSS mean change from baseline,"[1]; Day 42, 64 mg group",−10.0 (5.0)
same,Mean IPSS score,"[1]; Day 42, 64 mg group",11.8 (5.9)
same,"Number of patients in IPSS category ""severe""","[1]; Day 42, 64 mg group",1 patients
same,Percentage responders (decrease in IPSS of at least 30% vs baseline),"[1]; Day 42, 64 mg group",85%
same,IPSS mean change from baseline,"[1]; Day 42, 64 mg group, listed as degarelix",−10.0 (SD=5.0)
same,IPSS mean change from baseline,"[1]; Day 42, 16+16 mg group",−6.1 (4.6)
same,Mean IPSS score,"[1]; Day 42, 16+16 mg group",11.6 (4.5)
same,Percentage responders (decrease in IPSS of at least 30% vs baseline),"[1]; Day 42, 16+16 mg group",54%
same,IPSS mean change from baseline,"[1]; Day 42, 16+16 mg group, listed as degarelix",−6.1 (SD=4.6)
same,IPSS mean change from baseline,"[1]; Day 42, 32+32 mg group",−9.6 (4.7)
same,Mean IPSS score,"[1]; Day 42, 32+32 mg group",8.6 (5.7)
same,Percentage responders (decrease in IPSS of at least 30% vs baseline),"[1]; Day 42, 32+32 mg group",83%
same,IPSS mean change from baseline,"[1]; Day 42, 32+32 mg group, listed as degarelix",−9.6 (SD=4.7)
same,"Number of patients in IPSS category ""mild""",[1]; [3],17 patients
same,"Number of patients in IPSS category ""moderate""",[1]; [3],31 patients
same,"Number of patients in IPSS category ""severe""",[1]; [3],2 patients
same,IPSS mean change from baseline,[1]; [4],−11.6 (8.3)
same,Mean IPSS score,[1]; [4],10.4 (6.3)
same,Percentage responders (decrease in IPSS of at least 30% vs baseline),[1]; [4],86%
same,IPSS mean change from baseline,[1]; [5],−4.0 (3.6)
same,Mean IPSS score,[1]; [5],16.0 (8.7)
same,Percentage responders (decrease in IPSS of at least 30% vs baseline),[1]; [5],5%
same,IPSS mean change from baseline,[1]; [6],−2.5 (4.3)
same,Mean IPSS score,[1]; [6],16.3 (4.7)
same,Percentage responders (decrease in IPSS of at least 30% vs baseline),[1]; [6],33%
same,IPSS mean change from baseline,[1]; [7],−12.6 (9.6)
same,Mean IPSS score,[1]; [7],6.7 (4.5)
same,Percentage responders (decrease in IPSS of at least 30% vs baseline),[1]; [7],86%
same,"Number of patients in IPSS category ""moderate""",[1]; [8],27 patients
same,"Number of patients in IPSS category ""severe""",[1]; [8],23 patients
same,Degarelix Cmax and AUC values,[2],higher Cmax and AUC values
